This note sets out measurements from ChEMBL document CHEMBL4177571, “Synthesis and biological evaluation of a new series of cinnamic acid amide derivatives as potent haemostatic agents containing a 2-aminothiazole substructure” (Bioorg Med Chem Lett, 2017).

The term IC50 denotes the concentration at which inhibition is half-maximal.

Series [1] can be described thus: Thermal stability of the compound at 150 degC by thermogravimetric assay. The series is classed as physicochemical.
The subject of series [2] is Plasma. The series can be described thus: Inhibition of ADP-induced platelet aggregation in human plasma. The series is classed as functional.
Series [3] relates to Plasma. In words: Haemostatic activity in human plasma assessed as change in rate of prothrombin time at 1 uM after 3 mins by thromboplastic agent based assay relative to control. Type of series: functional.
Series [4] relates to Plasma. In words: Haemostatic activity in human plasma assessed as change in rate of prothrombin time at 5 uM after 3 mins by thromboplastic agent based assay relative to control. Type of series: functional.
Series [5] has as its system Plasma. The series can be described thus: Haemostatic activity in human plasma assessed as change in rate of prothrombin time at 10 uM after 3 mins by thromboplastic agent based assay relative to control. The series is classed as functional.
The test system of series [6] is Plasma. In words: Haemostatic activity in human plasma assessed as change in rate of prothrombin time at 50 uM after 3 mins by thromboplastic agent based assay relative to control. Type of series: functional.
The test system of series [7] is Plasma. The series can be described thus: Haemostatic activity in human plasma assessed as change in rate of prothrombin time at 100 uM after 3 mins by thromboplastic agent based assay relative to control. Type of series: functional.
Series [8] has as its system Plasma. In words: Haemostatic activity in human plasma assessed as change in rate of activated partial thromboplastin time at 1 uM after 3 mins relative to control. Type of series: functional.
Series [9] concerns Plasma. In words: Haemostatic activity in human plasma assessed as change in rate of activated partial thromboplastin time at 5 uM after 3 mins relative to control. The series is classed as functional.
For series [10], the system named is Plasma. In words: Haemostatic activity in human plasma assessed as change in rate of activated partial thromboplastin time at 10 uM after 3 mins relative to control. Type of series: functional.
Series [11] has as its system Plasma. The series can be described thus: Haemostatic activity in human plasma assessed as change in rate of activated partial thromboplastin time at 50 uM after 3 mins relative to control. The series is classed as functional.
The subject of series [12] is Plasma. The series can be described thus: Haemostatic activity in human plasma assessed as change in rate of activated partial thromboplastin time at 100 uM after 3 mins relative to control. Type of series: functional.
For series [13], the system named is Plasma. The series can be described thus: Haemostatic activity in human plasma assessed as change in rate of thrombin time at 1 uM after 3 mins by thrombin agent based assay relative to control. The series is classed as functional.
Series [14] concerns Plasma. In words: Haemostatic activity in human plasma assessed as change in rate of thrombin time at 5 uM after 3 mins by thrombin agent based assay relative to control. Type of series: functional.
Series [15] concerns Plasma. The series can be described thus: Haemostatic activity in human plasma assessed as change in rate of thrombin time at 10 uM after 3 mins by thrombin agent based assay relative to control. Type of series: functional.
Series [16] deals with Plasma. In words: Haemostatic activity in human plasma assessed as change in rate of thrombin time at 50 uM after 3 mins by thrombin agent based assay relative to control. Type of series: functional.
Series [17] has as its system Plasma. In words: Haemostatic activity in human plasma assessed as change in rate of thrombin time at 100 uM after 3 mins by thrombin agent based assay relative to control. Type of series: functional.

As to `O=C(CCc1ccccc1)Nc1nccs1`, the Stability result in [1] is on record as “Stable”. The same molecule returned an IC50 in series [2] of 45.1 µM. Besides, the Activity in series [3] is listed as -0.56%; in [4], -2.44%; in [5], -3.19%; in [6], -2.81%; in series [7] it was 0%; in series [8], 1%. The Activity is -2.42% in [9]; -1.85% in series [10]; -1.56% in [11]; 0.28% in series [12]; -3.15% in series [13]; -4.6% in [14]. In addition, the Activity in series [15] was -5.33%; in series [16] it was -7.02%; in series [17], -7.93%.
As for `COc1ccc(/C=C/C(=O)Nc2nccs2)cc1OC`, the Stability entry in [1] is listed as “Stable”. The IC50 in series [2] was found to be 54.5 µM. In addition, the Activity is reported as -1.7% in series [3]; 0.28% in series [4]; -0.22% in [5]; -1.49% in series [6]; -2.99% in series [7]; -0.14% in [8]. The Activity in [9] was -6.47%; in series [10], -1.41%; in series [11] it was -0.56%; in series [12], 1.97%; in series [13], -14.62%; in series [14], -16.04%. Besides, the Activity in series [15] is -22.41%; in series [16], -23.82%; in series [17], -14.62%.
For `COc1cc(/C=C/C(=O)Nc2nccs2)cc(OC)c1OC`, the Stability entry in [1] is listed as “Stable”. Moreover, half-maximal inhibition in series [2] (IC50) required 18.1 µM. The Activity in series [3] was 0.56%; in series [4], -0.95%; in [5], 3.22%; in series [6], 0.55%; in [7], 2.55%; in series [8], 0.56%. In addition, the Activity in series [9] is reported as 1.55%; in [10] it was 2.25%; in series [11], 1.96%; in series [12], 1.69%; in series [13] it was -29.01%; in [14], -22.17%. In addition, the Activity in series [15] is -10.14%; in [16], -21.7%; in series [17], -50.24%.
Turning to `COc1ccc(/C=C/C(=O)Nc2nccs2)cc1`, in [1], the Stability result is “Stable”. The molecule further showed an IC50 in series [2] of 73.7 µM. The Activity in series [3] is -1.51%; in [4], -2.27%; in series [5] it was 0%; in series [6], -0.75%; in series [7], -6.75%; in series [8], -1.28%. Moreover, the Activity in [9] was -2.7%; in series [10], 0.14%; in series [11] it was 0.28%; in [12], -0.71%; in series [13], -6.54%; in series [14], -7.51%. The Activity in series [15] is -8.23%; in series [16], -13.8%; in series [17] it was -16.95%.
Turning to `CC(=O)Oc1ccc(/C=C/C(=O)Nc2nccs2)cc1`, the Stability result in series [1] is recorded as “Stable”. This molecule also returned an IC50 in series [2] of 58.1 µM. Further, the Activity in [3] is reported as -3.2%; in [4], -4.4%; in [5], -5.29%; in [6] it was -4.3%; in series [7] it was 1.2%; in series [8], -1.68%. The Activity was -3.1% in series [9]; -3.88% in series [10]; -2.71% in series [11]; -2.45% in series [12]; -11.45% in [13]; -14.54% in [14]. The Activity in series [15] is -22.03%; in series [16], -21.15%; in [17] it was -6.39%.
As to `COc1cc(/C=C/C(=O)Nc2nccs2)ccc1OC(C)=O`, in series [1], the Stability result is “Stable”. Further, 25.5 µM corresponded to half-maximal inhibition in [2] (IC50). Moreover, the Activity in series [3] is reported as -1.98%; in series [4], -2.24%; in series [5], -4.39%; in [6], -5.77%; in series [7], -7.32%; in series [8], -1.14%. For the same molecule, the Activity in series [9] was -2.57%; in [10], -3.42%; in series [11], -6.28%; in series [12], -1.85%; in [13], -5.76%; in series [14] it was -7.88%. Also, the Activity in [15] was -13.06%; in series [16], -12.35%; in series [17], -11.06%.
Take `O=C(/C=C/c1ccccc1)Nc1nccs1`: the Stability entry in [1] is on record as “Stable”. In series [2], half-maximal inhibition (IC50) required 36.6 µM. Moreover, the Activity is given as -5.69% in series [3]; -7.09% in series [4]; -5.59% in [5]; -4.4% in series [6]; -3.7% in series [7]; -4.78% in [8]. In addition, the Activity in series [9] is -5.81%; in series [10], -9.95%; in series [11], -6.72%; in series [12], -2.71%; in series [13], -7.93%; in series [14], -10.79%. In addition, the Activity in series [15] is -11.23%; in series [16] it was -13.66%; in series [17] it was -9.69%.
Consider `CC(=O)Oc1ccccc1/C=C/C(=O)Nc1nccs1`, for which the Stability result in series [1] is on record as “Stable”. This molecule also gave an IC50 in series [2] of 1.87 µM. Moreover, the Activity is listed as -1.68% in [3]; -3.25% in series [4]; -4.62% in series [5]; -2.2% in series [6]; -1.78% in series [7]; -5.55% in [8]. In addition, the Activity is on record as -9.51% in series [9]; -8.61% in series [10]; -8.15% in series [11]; -6.12% in series [12]; -2.4% in series [13]; -13.46% in [14]. The Activity in [15] is -21.39%; in series [16] it was -26.2%; in [17] it was -21.88%.
For `CC(=O)Oc1cccc(/C=C/C(=O)Nc2nccs2)c1`, the Stability entry in series [1] was “Stable”. For the same molecule, the IC50 in [2] is 35.5 µM. The Activity in series [3] was -0.1%; in series [4], -1.05%; in series [5], -0.73%; in [6] it was -0.42%; in [7] it was -0.84%; in [8], -4.64%. Moreover, the Activity was -6.57% in [9]; -10.19% in series [10]; -9.06% in [11]; -8.61% in [12]; -5.05% in series [13]; -7.21% in series [14]. Further, the Activity in series [15] is -15.39%; in series [16], -19.95%; in series [17] it was -21.64%.
For `CC(=O)Oc1ccc(/C=C/C(=O)Nc2nccs2)cc1OC(C)=O`, the Stability result in [1] is listed as “Stable”. The molecule also came in with an IC50 in [2] of 75.6 µM. The Activity is reported as -4.3% in series [3]; -4.09% in series [4]; -1.36% in series [5]; -1.68% in series [6]; -3.88% in series [7]; -2.94% in [8]. Further, the Activity in series [9] was -6%; in [10], -2.94%; in [11], -2.04%; in [12] it was 0%; in series [13], -13.94%; in series [14], -30.77%. The Activity in series [15] is -28.13%; in series [16], -27.89%; in [17], -15.63%.
As for `Nc1nccs1` [AMINOTHIAZOLE], in series [2], the IC50 worked out at 202 µM. Moreover, the Activity in [3] is recorded as -6.63%; in [4], -4.91%; in [5], -2.84%; in [6], -5.17%; in series [7], -5.43%; in [8], -3.71%. Moreover, the Activity in series [9] is recorded as -2%; in series [10], -0.43%; in series [11], 0%; in series [12], 2.53%; in [13], -3.53%; in [14] it was -5.06%. In addition, the Activity in [15] is listed as -6.47%; in series [16], -5.41%; in series [17] it was -3.53%.
As to `O=S(=O)(O)c1cc(O)ccc1O` [ETHAMSYLATE], the IC50 in series [2] came out at 46.2 µM.
